Measured values: patent US20230365537A1, “POLO LIKE KINASE 4 INHIBITORS” (ORIC Pharmaceuticals, Inc., priority 2021, published 2023)

Columns and labels:
human recombinant PLK4 = human recombinant PLK4 (Homo sapiens (Human), UniProt O00444); experiment: PLK4 Biochemical Assay (ADP-Glo); conditions: 0.5 nM PLK4, 8.0 µM ATP, 4.7 µM MBP, 6 hours at RT
In short: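 Recombinant human PLK4 (added at 1.0 nM) was preincubated 15 min at RT with compound in 50 mM HEPES pH 7.5, 10 mM MgCl2, 1 mM EGTA, 1 mM DTT, 0.01% Brij-35, 0.01% BSA. ADP formed was detected by ADP-Glo luminescence (40 min ATP depletion, 30 min detection). IC50 came from a four-parameter fit.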

CHP-134 cells = experiment: CHP134 CellTiter-Glo (CTG) Assay; assay type: cell-based; conditions: Homo sapiens, CHP-134, 120 h, 5 days, viable cells by CellTiter-Glo
In short: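 CHP-134 cells seeded at 200 cells/well for 16 h, then given nine 1:3 serial dilutions in quadruplicate at 37° C, 5% CO2. Viable cells measured by CellTiter-Glo luminescence after 5 days; IC50 calculated from curves.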

[1] = target: human recombinant Aurora A (Homo sapiens (Human), UniProt O14965); experiment: Aurora A Kinase Biochemical Assay (ADP-Glo); conditions: ratio of Aurora A IC50 to PLK4 IC50 (selectivity)
[2] = target: human recombinant Aurora B (Homo sapiens (Human), UniProt Q96GD4); experiment: Aurora B Kinase Biochemical Assay (ADP-Glo); conditions: ratio of Aurora B IC50 to PLK4 IC50 (selectivity)
In short: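 Recombinant human Aurora B (20 nM in pH 7.5 HEPES buffer with MgCl2, EGTA, DTT, Brij-35, BSA) preincubated with compound 15 min at RT. ADP formed quantified by ADP-Glo luminescence after ATP depletion (40 min) and detection (30 min). IC50 from four-parameter non-linear regression.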

Sequence of human recombinant Aurora B (Q96GD4 whole entry): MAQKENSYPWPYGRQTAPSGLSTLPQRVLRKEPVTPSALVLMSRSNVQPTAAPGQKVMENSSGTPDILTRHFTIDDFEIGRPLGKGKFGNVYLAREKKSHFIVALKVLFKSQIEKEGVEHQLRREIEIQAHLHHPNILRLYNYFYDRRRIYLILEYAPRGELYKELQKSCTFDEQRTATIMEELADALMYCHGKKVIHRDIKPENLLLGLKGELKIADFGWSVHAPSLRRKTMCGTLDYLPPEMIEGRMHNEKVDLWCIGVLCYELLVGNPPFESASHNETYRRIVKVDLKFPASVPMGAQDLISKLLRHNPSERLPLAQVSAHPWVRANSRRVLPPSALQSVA
Sequence of human recombinant Aurora A (O14965 whole entry): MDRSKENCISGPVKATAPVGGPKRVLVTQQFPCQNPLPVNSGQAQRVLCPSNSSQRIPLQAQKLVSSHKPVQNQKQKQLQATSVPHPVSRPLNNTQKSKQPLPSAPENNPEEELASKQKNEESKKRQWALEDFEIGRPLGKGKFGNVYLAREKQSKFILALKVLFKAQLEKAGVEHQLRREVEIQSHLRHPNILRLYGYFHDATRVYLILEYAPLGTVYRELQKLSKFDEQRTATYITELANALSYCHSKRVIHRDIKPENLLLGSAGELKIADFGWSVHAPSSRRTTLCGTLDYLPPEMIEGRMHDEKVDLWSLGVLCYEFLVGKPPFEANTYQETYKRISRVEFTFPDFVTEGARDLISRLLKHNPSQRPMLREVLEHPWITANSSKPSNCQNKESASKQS
Sequence of human recombinant PLK4 (O00444 whole entry): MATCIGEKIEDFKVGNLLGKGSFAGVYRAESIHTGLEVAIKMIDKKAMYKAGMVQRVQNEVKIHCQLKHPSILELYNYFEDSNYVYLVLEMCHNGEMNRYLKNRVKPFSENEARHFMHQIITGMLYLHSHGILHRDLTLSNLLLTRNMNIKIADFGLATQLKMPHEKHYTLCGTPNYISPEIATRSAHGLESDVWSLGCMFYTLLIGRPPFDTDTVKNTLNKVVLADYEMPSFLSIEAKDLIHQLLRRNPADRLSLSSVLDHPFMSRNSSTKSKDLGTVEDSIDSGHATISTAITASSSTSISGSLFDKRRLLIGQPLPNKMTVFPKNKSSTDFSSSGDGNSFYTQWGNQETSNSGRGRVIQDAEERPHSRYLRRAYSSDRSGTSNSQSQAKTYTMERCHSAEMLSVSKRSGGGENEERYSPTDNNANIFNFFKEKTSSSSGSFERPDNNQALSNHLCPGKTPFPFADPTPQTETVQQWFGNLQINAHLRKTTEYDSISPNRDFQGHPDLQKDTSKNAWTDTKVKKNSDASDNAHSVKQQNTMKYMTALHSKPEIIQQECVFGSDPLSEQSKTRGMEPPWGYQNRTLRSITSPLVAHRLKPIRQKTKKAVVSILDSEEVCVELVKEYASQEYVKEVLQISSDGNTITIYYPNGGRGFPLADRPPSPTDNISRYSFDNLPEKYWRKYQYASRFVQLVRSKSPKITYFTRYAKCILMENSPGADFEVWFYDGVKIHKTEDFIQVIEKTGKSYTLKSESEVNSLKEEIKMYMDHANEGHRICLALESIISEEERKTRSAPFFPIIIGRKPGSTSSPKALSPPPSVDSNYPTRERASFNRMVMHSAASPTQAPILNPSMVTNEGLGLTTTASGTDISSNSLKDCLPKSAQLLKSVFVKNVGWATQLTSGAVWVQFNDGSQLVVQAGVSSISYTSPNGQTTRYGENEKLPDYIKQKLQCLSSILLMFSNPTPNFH

Row | SMILES | IC50 (human recombinant PLK4) | IC50 (CHP-134 cells) | [Aurora A IC50 (nM)]/[PLK4 IC50 (nM)] [1] | [Aurora B IC50 (nM)]/[PLK4 IC50 (nM)] [2]
1 | COc1ccc2c(c1)[C@]1(C[C@H]1c1ccc3c(Nc4ccc(C(=O)N5CCOCC5)cc4OC)n[nH]c3c1)C(=O)N2 [Example 199, (1R,2S)-5′-methoxy-2-{3-[2-methoxy-4-(morpholine-4-carbonyl)anilino]-1H-indazol-6-yl}spiro[cyclopropane-1,3′-indol]-2′(1′H)-one] | 0.716 nM | 108 nM | 439.9441 | 57.7095
2 | COc1ccc2c(c1)[C@]1(C[C@H]1c1ccc3c(Nc4nc(C)nc(N5CCS(=O)(=O)CC5)c4Cl)n[nH]c3c1)C(=O)N2 [Example 58, 4-[5-chloro-6-({6-[(1R,2S)-5′-methoxy-2′-oxo-1,2′-dihydrospiro[cyclopropane-1,3′-indol]-2-yl]-1H-indazol-3-yl}amino)-2-methylpyrimidin-4-yl]-1λ6-thiomorpholine-1,1-dione] | 2.32 nM | 157 nM | 1393.782 | 140.6736
3 | COc1ccc2c(c1)[C@]1(C[C@H]1c1ccc3c(Nc4ncnc(N5CC(OC)C5)c4Cl)n[nH]c3c1)C(=O)N2 [Example 47, (1R,2S)-2-(3-{[5-chloro-6-(3-methoxyazetidin-1-yl)pyrimidin-4-yl]amino}-1H-indazol-6-yl)-5′-methoxyspiro[cyclopropane-1,3′-indol]-2′(1′H)-one] | 1.3 nM | 610 nM | 1879.416 | 104.3011
4 | COc1ccc2c(c1)[C@]1(C[C@H]1c1ccc3c(Nc4nc(C5CC5)nc(N5C[C@@H](C)O[C@@H](C)C5)c4OC)n[nH]c3c1)C(=O)N2 [Example 77, (1R,2S)-2-[3-({2-cyclopropyl-6-[(2R,6S)-2,6-dimethylmorpholin-4-yl]-5-methoxypyrimidin-4-yl}amino)-1H-indazol-6-yl]-5′-methoxyspiro[cydopropane-1,3′-indol]-2′(1′H)-one] | 1.76 nM | 725 nM | 6738.759 | 1577.689
5 | COc1ccc2c(c1)[C@]1(C[C@H]1c1ccc3c(Nc4ncnc(N5CCN(C)CC5)c4Cl)n[nH]c3c1)C(=O)N2 [Example 20, (1R,2S)-2-(3-{[5-chloro-6-(4-methylpiperazin-1-yl)pyrimidin-4-yl]amino}-1H-indazol-6-yl)-5′-methoxyspiro[cyclopropane-1,3′-indol]-2′(1′H)-one] | 2.25 nM | 263 nM | 4489.796 | 306.8323
6 | CCOc1cc(S(=O)(=O)N2CCN(C)CC2)cnc1Nc1n[nH]c2cc([C@@H]3C[C@@]34C(=O)Nc3ccc(OC)cc34)ccc12 [Example 273, (1R,2S)-2-(3-{[3-ethoxy-5-(4-methylpiperazine-1-salfonyl)pyridin-2-yl]amino)-1H-indazol-6-yl)-5′-methoxyspiro[cyclopropane-1,3′-indol]-2′(1′H)-one] | 1.45 nM | 1700 nM | 3483.1383 | 2831.3833
7 | COc1ccc2c(c1)[C@]1(C[C@H]1c1ccc3c(Nc4cc5cccnc5cc4OC)n[nH]c3c1)C(=O)N2 [Example 161, (1R,2S)-5′-methoxy-2-{3-[(7-methoxyquinolin-6-yl)amino]-1H-indazol-6-yl}spiro[cyclopropane-1,3′-indol]-2′(1′1H)-one] | 2.21 nM | 352 nM | 291.4932 | 258.4163
8 | COc1ccc2c(c1)[C@]1(C[C@H]1c1ccc3c(Nc4nc(C5CC5)nc(N5CCOCC5)c4OC)n[nH]c3c1)C(=O)N2 [Example 51, (1R,2S)-2-(3-1[2-cyclopropyl-5-methoxy-6-(morpholin-4-yl)pyrimidin-4-yl]aminol-1H-indezol-6-yl)-5′-methoxyapiro[cyclopropane-1,3′-indol]-2′(1′H)-one] | 1.23 nM | 143 nM | 3031.656 | 1241.883
9 | CCS(=O)(=O)c1cc(OC)c(Nc2n[nH]c3cc([C@@H]4C[C@@]45C(=O)Nc4ccc(OC)cc45)ccc23)cn1 [Example 262, (1R,2S)-2-(3-{[6-(ethanesulfonyl)-4-methoxypyridin-3-yl]amino}-1H-indazol-6-yl)-5′-methoxyspiro[cyclopropane-1,3′-indol]-2′(1′H)-one] | 1.39 nM | 507 nM | 3488.1209 | 526.7
10 | COc1ccc2c(c1)[C@]1(C[C@H]1c1ccc3c(Nc4ccc(C(=O)N5CCC(F)(F)CC5)nc4OC)n[nH]c3c1)C(=O)N2 [Example 185, (1R,2S)-2-(3-{[6-(4,4-difluoropiperidine-1-carbonyl)-2-methoxypyridin-3-yl]amino}-1H-indazol-6-yl)-5′-methoxyspiro[cyclopropane-1,3′-indol]-2′(1′H)-one] | 1.96 nM | 134 nM | 3240.7975 | 180.1636
11 | COc1ccc2c(c1)[C@]1(C[C@H]1c1ccc3c(Nc4nc(C(C)C)ncc4OC(F)F)n[nH]c3c1)C(=O)N2 [Example 128, (1R,2S)-2-(3-{[5-(difluoromethoxy)-2-(propan-2-yl)pyrimidin-4-yl]amino}-1H-indazol-6-yl)-5′-methoxyspiro[cyclopropane-1,3′-indol]-2′(1′H)-one] | 2.89 nM | 1490 nM | 2750.2597 | 1337.0280
12 | COc1ccc2c(c1)[C@]1(C[C@H]1c1ccc3c(Nc4nc(C5CC5)cnc4OC)n[nH]c3c1)C(=O)N2.O=C(O)C(F)(F)F [Example 80, (1R,2S)-2-{3-[(6-cyclopropyl-3-methorypyrazin-2-yl)amino]-1H-indazol-yl}-5′-metboxyspiro[cyclopropane-1,3′-indol]-2′(1′H)-one] | 2.37 nM | 294 nM | 346.5116 | 54.12
13 | COc1ccc2c(c1)[C@]1(C[C@H]1c1ccc3c(Nc4ccc(N5CCCC5=O)nc4OC)n[nH]c3c1)C(=O)N2 [Example 215, (1R,2S)-5′-methoxy-2-(3-{[2-methoxy-6-(2-oxopyrrolidin-1-yl)pyridin-3-yl]amino}-1H-indazol-6-yl)spiro[cyclopropane-1,3′-indol]-2′(1′H)-one] | 2.1 nM | 192 nM | 986.6539 | 53.57
14 | COc1ccc2c(c1)[C@]1(C[C@H]1c1ccc3c(Nc4nc(C)ncc4Cl)n[nH]c3c1)C(=O)N2 [Example 98, (1R,2S)-2-{3-[(5-chloro-2-methylpyrimidin-4-yl)amino]-1H-indazol-6-yl)-5′-methoxyspiro[cyclopropane-1,3′-indol]-2′(1′H)-one] | 7.55 nM | 65.8 nM | 787.0003 | 305.5335
15 | COc1ccc2c(c1)[C@]1(C[C@H]1c1ccc3c(Nc4ccc(C(=O)N(C)OC)nc4OC)n[nH]c3c1)C(=O)N2 [Example 218, N,6-dimethoxy-5-({6-[(1R,2S)-5′-methoxy-2′-oxo-1′,2′-dihydrospiro[cyclopropane-1,3′-indol]-2-yl]-1H-indazol-3-yl}amino)-N-methylpyridine-2-carboxamide] | 0.955 nM | 73.8 nM | 806.5968 | 70.8586
16 | COc1ccc2c(c1)[C@]1(C[C@H]1c1ccc3c(Nc4ccc(C(=O)NCC(F)F)nc4OC)n[nH]c3c1)C(=O)N2 [Example 244, N-(2,2-difluoroethyl)-6-methoxy-5-({6-[(1R,2S)-5′-methoxy-2′-oxo-1′,2′-dihydrospiro[cyclopropane-1,3′-indol]-2-yl]-1H-indazol-3-yl}amino)pyridine-2-carboxamide] | 2.91 nM | 545 nM | 1578.3505 | 312.3
17 | COc1ccc2c(c1)[C@]1(C[C@H]1c1ccc3c(Nc4nc(N5CC(O)C5)ncc4OC)n[nH]c3c1)C(=O)N2 [Example 114] | 2.09 nM | 10000 nM | 590.1482 | 811.5734
18 | COc1ccc2c(c1)[C@]1(C[C@H]1c1ccc3c(Nc4nc(C)nc5c4CCC5)n[nH]c3c1)C(=O)N2 [Example 159, (1R,2S)-5′-methoxy-2-{3-[(2-methyl-6,7-dihydro-5H-cyclopenta[d]pyrimidin-4-yl)amino]-1H-indazol-6-yl}spiro[cyclopropane-1,3′-indol]-2′(1′H)-one] | 1.96 nM | 1300 nM | 309.7350 | 58.0530
19 | COc1ccc2c(c1)[C@]1(C[C@H]1c1ccc3c(Nc4ncnc(N5CCOCC5)c4Cl)n[nH]c3c1)C(=O)N2 [Example 9, (1R,2S)-2-(3-{[5-Chloro-6-(morpholin-4-yl)pyrimidin-4-yl]amino}-1H-indazol-6-yl)-5′-methoxyspiro[cyclopropane-1,3′-indol]-2′(1′H)-one] | 0.694 nM | 99.7 nM | 4791.187 | 240.6394
